Legend:
TrkA = target: T1, TrkA (Homo sapiens, UniProt P04629); experiment: Enzyme Fragment Complementation cell-based assay, TrkA; details: U2OS-cells over-expressing TrkA; ligand 10 ng/mL; 3 hours incubation
T1 construct: expressed in transfected cells; host or cells: U2OS
From the text: (§1) A high throughput cell-based screen has been used to identify positive modulators of TrkA, TrkB and TrkC. The screen involves the use of cell-based assay overexpressing TrkA, TrkB or TrkC. The purpose of the assay is to identify compounds that modulate neurotrophin signalling (Forsell et al 2012). The assay can be used in inhibitor mode using a high concentration of ligand, in modulator mode using an intermediate concentration and in agonist mode using a low concentration of ligand.
(§2) The assay uses Enzyme Fragment Complementation (EFC) technique, which is a proximity-based assay. Briefly, cells used in this assay over-express two fusion proteins, i.e. the receptor, which can be either one of TrkA, TrkB, TrkC, IGF1R or FGFR1, fused to a small peptide of beta-galactosidase and an adaptor protein, i.e. SHC1 (or any other Trk-adaptor protein) fused to the major part of beta-galactosidase. […] The proximity between the small activating peptide on the receptor and the major part of beta-galactosidase on the adaptor protein leads to an active beta-galactosidase enzyme. The activation of the receptor is quantified by measuring the amount of active beta-galactosidase by its conversion of a non-luminescent substrate into a luminescent product.
(§3) U2OS-cells, over-expressing TrkA or TrkB or TrkC, are plated in 96- or 384-well plates and incubated overnight. Alternatively, cryopreserved HEK293-cells expressing IGFR1 or cryopreserved U2OS-cells expressing FGFR1 were plated in 96- or 384-well plates. On the following day, test compound was pre-mixed with ligand (NGF, BDNF, NT-3, IGF-1 or basic fibroblast growth factor (bFGF(FGF-2))) and the ligand-compound mixture is then added to the cells to yield a final ligand concentration of 10 ng/mL. After 3 hours of incubation at room temperature, the incubation is stopped by the addition of a beta-galactosidase substrate mixture containing detergents. The substrate mixture is incubated for 60 minutes at ambient temperature. The luminescence is thereafter read by the use of a plate reader.

TrkB = target: T2, TrkB (Homo sapiens, UniProt Q16620); experiment: Enzyme Fragment Complementation cell-based assay, TrkB; details: U2OS-cells over-expressing TrkB; ligand 10 ng/mL; 3 hours incubation
T2 construct: expressed in transfected cells; host or cells: U2OS
From the text: as §1, §2, §3

TrkC = target: T3, TrkC (Homo sapiens, UniProt Q16288); experiment: Enzyme Fragment Complementation cell-based assay, TrkC; details: U2OS-cells over-expressing TrkC; ligand 10 ng/mL; 3 hours incubation
T3 construct: expressed in transfected cells; host or cells: U2OS
From the text: as §1, §2, §3

T1 sequence (P04629 33-796): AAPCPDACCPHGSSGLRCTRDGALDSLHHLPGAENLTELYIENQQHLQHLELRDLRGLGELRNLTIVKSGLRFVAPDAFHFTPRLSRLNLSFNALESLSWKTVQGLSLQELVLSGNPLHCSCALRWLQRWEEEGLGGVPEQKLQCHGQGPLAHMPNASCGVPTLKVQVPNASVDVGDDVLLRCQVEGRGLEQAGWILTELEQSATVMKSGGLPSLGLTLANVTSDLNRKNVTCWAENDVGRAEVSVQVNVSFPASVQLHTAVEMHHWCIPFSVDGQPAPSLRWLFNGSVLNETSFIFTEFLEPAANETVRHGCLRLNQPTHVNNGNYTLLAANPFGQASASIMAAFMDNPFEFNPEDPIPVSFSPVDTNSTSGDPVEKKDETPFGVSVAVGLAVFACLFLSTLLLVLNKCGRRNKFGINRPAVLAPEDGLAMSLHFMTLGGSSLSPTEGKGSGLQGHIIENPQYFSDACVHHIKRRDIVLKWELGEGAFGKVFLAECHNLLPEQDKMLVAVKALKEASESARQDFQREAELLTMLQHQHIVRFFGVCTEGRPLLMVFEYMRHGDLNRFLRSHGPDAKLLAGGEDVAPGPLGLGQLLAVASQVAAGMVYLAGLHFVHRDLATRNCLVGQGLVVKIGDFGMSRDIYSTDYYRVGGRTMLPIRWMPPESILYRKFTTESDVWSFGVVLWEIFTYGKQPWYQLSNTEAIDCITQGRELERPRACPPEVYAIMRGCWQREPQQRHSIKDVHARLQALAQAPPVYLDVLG
T2 sequence (Q16620 32-822): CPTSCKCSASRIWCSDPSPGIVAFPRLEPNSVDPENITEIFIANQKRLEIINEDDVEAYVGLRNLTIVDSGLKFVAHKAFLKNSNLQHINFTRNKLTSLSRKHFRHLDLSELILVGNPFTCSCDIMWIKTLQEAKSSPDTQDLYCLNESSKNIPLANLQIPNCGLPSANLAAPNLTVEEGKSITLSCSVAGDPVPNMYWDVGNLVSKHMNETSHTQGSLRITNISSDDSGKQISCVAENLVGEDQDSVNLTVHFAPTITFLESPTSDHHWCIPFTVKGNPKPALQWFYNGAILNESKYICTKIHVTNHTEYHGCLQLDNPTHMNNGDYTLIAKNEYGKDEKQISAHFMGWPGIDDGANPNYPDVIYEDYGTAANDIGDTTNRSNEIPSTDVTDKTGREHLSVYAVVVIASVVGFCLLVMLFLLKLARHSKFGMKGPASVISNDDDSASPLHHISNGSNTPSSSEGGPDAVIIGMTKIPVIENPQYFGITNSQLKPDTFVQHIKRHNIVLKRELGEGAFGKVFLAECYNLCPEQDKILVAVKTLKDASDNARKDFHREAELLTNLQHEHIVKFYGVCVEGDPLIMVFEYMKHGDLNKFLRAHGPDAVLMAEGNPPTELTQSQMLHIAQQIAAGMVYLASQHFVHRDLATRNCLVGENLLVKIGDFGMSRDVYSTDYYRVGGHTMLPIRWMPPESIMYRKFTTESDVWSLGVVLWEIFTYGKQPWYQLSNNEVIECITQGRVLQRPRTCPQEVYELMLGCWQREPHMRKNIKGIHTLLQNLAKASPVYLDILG
T3 sequence (Q16288 32-839): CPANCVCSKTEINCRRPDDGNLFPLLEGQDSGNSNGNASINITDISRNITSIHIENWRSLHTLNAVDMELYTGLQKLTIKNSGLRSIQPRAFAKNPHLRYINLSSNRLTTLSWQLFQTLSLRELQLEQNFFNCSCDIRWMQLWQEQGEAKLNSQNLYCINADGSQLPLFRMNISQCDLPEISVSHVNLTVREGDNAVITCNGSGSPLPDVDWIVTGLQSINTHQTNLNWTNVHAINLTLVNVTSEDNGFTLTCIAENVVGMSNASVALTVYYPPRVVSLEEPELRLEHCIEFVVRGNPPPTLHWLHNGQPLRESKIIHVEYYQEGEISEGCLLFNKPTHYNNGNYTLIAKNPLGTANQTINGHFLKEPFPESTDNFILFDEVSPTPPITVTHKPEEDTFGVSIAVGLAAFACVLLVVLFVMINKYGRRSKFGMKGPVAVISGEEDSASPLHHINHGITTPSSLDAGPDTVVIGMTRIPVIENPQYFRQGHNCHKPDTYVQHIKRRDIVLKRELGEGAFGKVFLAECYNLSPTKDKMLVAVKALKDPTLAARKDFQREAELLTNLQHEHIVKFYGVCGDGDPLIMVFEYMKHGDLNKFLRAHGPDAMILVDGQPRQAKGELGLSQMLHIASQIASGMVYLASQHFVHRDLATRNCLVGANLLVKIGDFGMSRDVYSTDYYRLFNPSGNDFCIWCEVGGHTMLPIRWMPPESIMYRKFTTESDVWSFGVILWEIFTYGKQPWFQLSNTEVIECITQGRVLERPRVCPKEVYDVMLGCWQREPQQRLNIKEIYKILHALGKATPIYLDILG

Row | SMILES | EC50 (TrkA) [nM] | EC50 (TrkB) [nM] | EC50 (TrkC) [nM]
1 | Cn1c(=O)[nH]c(=O)n(-c2ccc(Oc3ccccc3)c(OC3CCCC3)c2)c1=O [Example 15, 1-[3-(cyclopentyloxy)-4-phenoxyphenyl]-3-methyl-1,3,5-triazinane-2,4,6-trione] | 590 | 650 | 1100
2 | O=c1[nH]c(=O)n(-c2ccc(Oc3ccccc3)c(OC3CCOC3)c2)c(=O)n1-c1ccccc1 (stereo not drawn) [Example 17, 1-[3-(oxolan-3-yloxy)-4-phenoxyphenyl]-3-phenyl-1,3,5-triazinane-2,4,6-trione] | 780 | 750 | 480
3 | O=c1[nH]c(=O)n(-c2ccc(Nc3ccccc3)cc2)c(=O)n1-c1ccccc1 [Example 20, 1-phenyl-3-[4-(phenylamino)phenyl]-1,3,5-triazinane-2,4,6-trione] | 6900 | 8900 | 3200
4 | CCOc1cc(-n2c(=O)[nH]c(=O)n(C)c2=O)ccc1Oc1ccccc1 [Example 21, 1-(3-ethoxy-4-phenoxyphenyl)-3-methyl-1,3,5-triazinane-2,4,6-trione] | 2100 | 2300 | 1200
5 | Cn1c(=O)[nH]c(=O)n(-c2ccc(Oc3ccccc3)c(OC3CCOC3)c2)c1=O (stereo not drawn) [Example 22, 1-methyl-3-[3-(oxolan-3-yloxy)-4-phenoxyphenyl]-1,3,5-triazinane-2,4,6-trione] | 1300 | 3600 | 3000
6 | O=c1[nH]c(=O)n(-c2ccc(Oc3ccccc3)c(OC3CCCC3)c2)c(=O)n1-c1ccccc1 [Example 23, 1-[3-(cyclopentyloxy)-4-phenoxyphenyl]-3-phenyl-1,3,5-triazinane-2,4,6-trione] | 1000 | 920 | 770
7 | CC(C)Oc1cc(-n2c(=O)[nH]c(=O)n(C)c2=O)ccc1Oc1ccccc1 [Example 26, 1-methyl-3-[4-phenoxy-3-(propan-2-yloxy)phenyl]-1,3,5-triazinane-2,4,6-trione] | 1100 | 1500 | 2000
8 | COCCOc1cc(-n2c(=O)[nH]c(=O)n(C)c2=O)ccc1Oc1ccccc1 [Example 28, 1-[3-(2-methoxyethoxy)-4-phenoxyphenyl]-3-methyl-1,3,5-triazinane-2,4,6-trione] | 1000 | 990 | 520
9 | COCCOc1cc(-n2c(=O)[nH]c(=O)n(-c3ccccc3)c2=O)ccc1Oc1ccccc1 [Example 29, 1-[3-(2-methoxyethoxy)-4-phenoxyphenyl]-3-phenyl-1,3,5-triazinane-2,4,6-trione] | 560 | 500 | 340
10 | Cn1c(=O)[nH]c(=O)n(-c2ccc(Oc3ccccc3)c(OCc3ccccc3)c2)c1=O [Example 30, 1-[3-(benzyloxy)-4-phenoxyphenyl]-3-methyl-1,3,5-triazinane-2,4,6-trione] | 1100 | 7500 | 890
11 | Cc1cc(-n2c(=O)[nH]c(=O)n(-c3ccccc3)c2=O)ccc1Sc1ccccc1 [Example 34, 1-[3-methyl-4-(phenylsulfanyl)phenyl]-3-phenyl-1,3,5-triazinane-2,4,6-trione] | 1600 | 2000 | 1200
12 | Cc1cn(-c2ccccc2)c2ccc(-n3c(=O)[nH]c(=O)n(-c4ccccc4)c3=O)cc12 [Example 35, 1-(3-Methyl-1-phenyl-1H-indol-5-yl)-3-phenyl-1,3,5-triazinane-2,4,6-trione] | 980 | 260 | 500
13 | Cc1cn(Cc2ccccc2)c2ccc(-n3c(=O)[nH]c(=O)n(-c4ccccc4)c3=O)cc12 [Example 36, 1-(1-Benzyl-3-methyl-1H-indol-5-yl)-3-phenyl-1,3,5-triazinane-2,4,6-trione] | 950 | 460 | 1500
14 | Cc1cn(Cc2ccccc2)c2ccc(-n3c(=O)[nH]c(=O)n(C)c3=O)cc12 [Example 38, 1-(1-benzyl-3-methyl-1H-indol-5-yl)-3-methyl-1,3,5-triazinane-2,4,6-trione] | 4500 | 4200 | 2400
15 | O=c1[nH]c(=O)n(-c2ccc(Oc3ccccc3)c(Cl)c2)c(=O)n1-c1ccccc1 [Example 39, 1-(3-chloro-4-phenoxyphenyl)-3-phenyl-1,3,5-triazinane-2,4,6-trione] | 1400 | 680 | 880
16 | COC(=O)c1cc(-n2c(=O)[nH]c(=O)n(-c3ccccc3)c2=O)ccc1Oc1ccccc1 [Example 74, methyl 2-phenoxy-5-(2,4,6-trioxo-3-phenyl-1,3,5-triazinan-1-yl)benzoate] | 580 | 540 | 
17 | O=c1[nH]c(=O)n(-c2ccc(Oc3ccccc3)c(CO)c2)c(=O)n1-c1ccccc1 [Example 75, 1-[3-(hydroxymethyl)-4-phenoxyphenyl]-3-phenyl-1,3,5-triazinane-2,4,6-trione] | 1170 | 1800 | 
18 | CN(C)C(=O)Cc1cc(-n2c(=O)[nH]c(=O)n(-c3ccccc3)c2=O)ccc1Oc1ccccc1 [Example 76, 1-{3-[2-(Dimethylamino)-2-oxoethyl]-4-phenoxyphenyl}-3-phenyl-1,3,5-triazinane-2,4,6-trione] | 33000 | 4530 | 
19 | Cc1ccc(-n2c(=O)[nH]c(=O)n(-c3cnc(Oc4ccccc4)c(C)c3)c2=O)cc1 [Example 78, 1-(5-Methyl-6-phenoxypyridin-3-yl)-3-(p-tolyl)-1,3,5-triazinane-2,4,6-trione] | 3510 | 3830 | 

Further lines, results first:

Row | EC50 (TrkA) [nM] | EC50 (TrkB) [nM] | EC50 (TrkC) [nM] | SMILES
20 | 390 | 370 | 510 | CCOc1cc(-n2c(=O)[nH]c(=O)n(-c3ccccc3)c2=O)ccc1Oc1ccccc1 [Example 16, 1-(3-ethoxy-4-phenoxyphenyl)-3-phenyl-1,3,5-triazinane-2,4,6-trione]
21 | 500 | 610 | 220 | Cn1c(=O)[nH]c(=O)n(-c2ccc(Oc3ccccc3)c(OCC3COC3)c2)c1=O [Example 24, 1-methyl-3-[3-(oxetan-3-ylmethoxy)-4-phenoxyphenyl]-1,3,5-triazinane-2,4,6-trione]
22 | 550 | 790 | 1000 | O=c1[nH]c(=O)n(-c2ccc(Oc3ccccc3)c(OCC3COC3)c2)c(=O)n1-c1ccccc1 [Example 25, 1-[3-(oxetan-3-ylmethoxy)-4-phenoxyphenyl]-3-phenyl-1,3,5-triazinane-2,4,6-trione]
23 | 360 | 370 | 330 | CC(C)Oc1cc(-n2c(=O)[nH]c(=O)n(-c3ccccc3)c2=O)ccc1Oc1ccccc1 [Example 27, 1-[4-phenoxy-3-(propan-2-yloxy)phenyl]-3-phenyl-1,3,5-triazinane-2,4,6-trione]
24 | 390 |  | 40 | Cc1cn(-c2ccccc2)c2ccc(-n3c(=O)[nH]c(=O)n(C)c3=O)cc12 [Example 37, 1-methyl-3-(3-methyl-1-phenyl-1H-indol-5-yl)-1,3,5-triazinane-2,4,6-trione]
25 | 260 | 280 | 140 | Cc1ccc(-n2c(=O)[nH]c(=O)n(-c3ccc(Oc4ccccc4)c(C)c3)c2=O)s1 [Example 40, 1-(3-methyl-4-phenoxyphenyl)-3-(5-methylthiophen-2-yl)-1,3,5-triazinane-2,4,6-trione]
26 | 250 | 210 | 140 | Cc1ccc(-n2c(=O)[nH]c(=O)n(-c3ccc(Oc4ccccc4)c(C)c3)c2=O)cc1 [Example 41, 1-(3-methyl-4-phenoxyphenyl)-3-(4-methylphenyl)-1,3,5-triazinane-2,4,6-trione]
27 | 190 | 790 | 2000 | Cc1cc(-n2c(=O)[nH]c(=O)n(-c3cccc4[nH]ccc34)c2=O)ccc1Oc1ccccc1 [Example 49, 1-(1H-indol-4-yl)-3-(3-methyl-4-phenoxyphenyl)-1,3,5-triazinane-2,4,6-trione]
28 | 290 | 110 | 170 | COCCOc1cc(-n2c(=O)[nH]c(=O)n(-c3ccc(C)cc3)c2=O)ccc1Oc1ccccc1 [Example 56, 1-[3-(2-methoxyethoxy)-4-phenoxyphenyl]-3-(4-methylphenyl)-1,3,5-triazinane-2,4,6-trione]
29 | 430 | 360 |  | CN(C)C(=O)COc1cc(-n2c(=O)[nH]c(=O)n(-c3ccccc3)c2=O)ccc1Oc1ccccc1 [Example 77, 1-{3-[2-(Dimethylamino)-2-oxoethoxy]-4-phenoxyphenyl}-3-phenyl-1,3,5-triazinane-2,4,6-trione]

Reference: patent US12209071B2, “Triazine derivatives for treating diseases relating to neurotrophins” (AlzeCure Pharma AB, priority 2018, dated 2025)
